Results: the NIST ThermoML archive (doi:10.1016/j.jct.2018.09.029)
± gives the expanded uncertainty stated by the source.

Experiment: Boiling temperature at pressure P
Conditions: 82.6 kPa; Liquid; Ebulliometric method (Recirculating still)

Structure (SMILES): O [water]
- Boiling temperature at pressure P: 94.41 ± 0.63 °C
